# Experimental data published in the supplement of paper PMC10307832.
# Assays:
# Assay in all cases: relative viability (nuclei count vs DMSO), 5 days (fraction); higher = more cells survive
# [1] = compound: COC1=CC=C(C=C1)COC2=C(C=C(C=C2)CC3=CN=C(N=C3N)N)OC [GW-2580] + CC1(C)CCC(c2ccc(Cl)cc2)=C(CN2CCN(c3ccc(C(=O)NS(=O)(=O)c4ccc(N[C@H](CCN5CCOCC5)CSc5ccccc5)c(S(=O)(=O)C(F)(F)F)c4)cc3)CC2)C1 [Navitoclax] (partner 0.5 µM)
# How it was run: (§1)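 After 5 days of treatment, lung cancer cells in 1536-well plates were fixed and stained in a single step (final 0.05% Triton X-100, 1% formaldehyde, 1 ug/ml Hoechst) and their nuclei counted on 4× images. Treatment had been applied by pin tool the day after seeding as one drug alone or as a fixed anchor-drug dose with five library-drug doses (not always all listed) in √10 steps. Relative viability is the nuclei count of treated wells divided by that of vehicle wells, and values are medians of duplicate plates.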
# [2] = compound: COC1=CC=C(C=C1)COC2=C(C=C(C=C2)CC3=CN=C(N=C3N)N)OC [GW-2580] + CS(=O)(=O)N1CCN(Cc2cc3nc(-c4cccc5[nH]ncc45)nc(N4CCOCC4)c3s2)CC1 [Pictilisib] (partner 1 µM)
# How it was run: as §1
# [3] = compound: COC1=CC=C(C=C1)COC2=C(C=C(C=C2)CC3=CN=C(N=C3N)N)OC [GW-2580] + N=C(N)NC(=N)NCCc1ccccc1 [Phenformin] (partner 250 µM)
# How it was run: as §1
# [4] = compound: Cc1cnc(Nc2ccc(OCCN3CCCC3)cc2)nc1Nc1cccc(S(=O)(=O)NC(C)(C)C)c1 [Fedratinib] + CCNC(=O)c1noc(-c2cc(C(C)C)c(O)cc2O)c1-c1ccc(CN2CCOCC2)cc1 [Luminespib] (partner 0.01 µM)
# How it was run: as §1
# [5] = compound: Cc1cnc(Nc2ccc(OCCN3CCCC3)cc2)nc1Nc1cccc(S(=O)(=O)NC(C)(C)C)c1 [Fedratinib] + Cc1nc(NC(=O)N2CCC[C@H]2C(N)=O)sc1-c1ccnc(C(C)(C)C(F)(F)F)c1 [Alpelisib] (partner 2 µM)
# How it was run: as §1
Cell Line,relative viability ([1]; first compound 0.08 µM),relative viability ([1]; first compound 0.8 µM),relative viability ([1]; first compound 2.53 µM),relative viability ([1]; first compound 8 µM),relative viability ([2]; first compound 0.08 µM),relative viability ([2]; first compound 0.8 µM),relative viability ([2]; first compound 2.53 µM),relative viability ([2]; first compound 8 µM),relative viability ([3]; first compound 0.08 µM),relative viability ([3]; first compound 0.8 µM),relative viability ([3]; first compound 2.53 µM),relative viability ([3]; first compound 8 µM),relative viability ([4]; first compound 0.1 µM),relative viability ([4]; first compound 0.3162 µM),relative viability ([4]; first compound 1 µM),relative viability ([5]; first compound 0.1 µM),relative viability ([5]; first compound 0.3162 µM),relative viability ([5]; first compound 1 µM)
NCI-H1793,0.433,0.266,0.833,0.415,0.312,0.33,0.216,0.254,0.4,0.259,0.314,0.286,0.174,0.163,0.204,0.746,0.683,0.627
NCI-H1915,0.858,0.898,0.778,0.837,0.986,0.906,0.954,0.886,0.392,0.368,0.362,0.38,0.823,0.754,0.734,1.03,1.04,0.943
NCI-H1944,1.09,1.1,1.03,0.988,0.35,0.324,0.343,0.278,0.198,0.201,0.169,0.189,0.741,0.801,0.763,0.804,0.945,0.716
NCI-H1975,1.2,1.3,1.21,0.98,0.294,0.325,0.29,0.29,0.44,0.43,0.414,0.418,0.235,0.266,0.178,0.613,0.692,0.467
NCI-H1993,0.932,1.14,,0.948,0.827,0.804,,0.655,0.573,0.461,0.486,0.518,0.679,0.85,1.1,0.612,0.755,0.65
NCI-H2009,1.25,1.22,1.15,1.02,0.924,0.982,0.652,0.809,0.509,0.45,0.409,0.423,1.04,1.09,0.943,1.21,1.2,1.1
NCI-H2023,0.914,1.06,0.973,1.01,0.241,0.257,0.217,0.216,0.466,0.423,0.336,0.382,0.578,0.581,0.632,0.578,0.629,0.56
NCI-H2085,1.09,1.11,1.03,1.07,0.498,0.386,0.461,0.494,0.756,0.739,0.682,0.769,0.415,0.463,0.408,0.977,0.963,0.922
NCI-H2087,0.956,1.16,0.886,0.88,1.04,1.03,0.61,0.767,0.526,0.473,0.352,0.444,0.17,0.18,0.14,1.03,1.05,0.963
NCI-H2126,0.915,0.875,0.808,0.921,0.483,0.497,0.448,0.452,0.52,0.535,0.543,0.526,0.929,0.962,0.834,0.745,0.719,0.786
NCI-H2170,0.5,0.68,0.467,0.657,0.316,0.353,0.304,0.287,0.442,0.345,0.37,0.336,0.651,0.677,0.648,0.835,0.809,0.654
NCI-H2228,1.01,0.84,0.869,0.723,0.425,0.285,0.327,0.417,0.395,0.371,0.358,0.318,0.112,0.12,0.119,0.59,0.842,0.747
NCI-H2347,0.899,0.777,0.708,0.804,0.662,0.992,0.592,0.717,0.423,0.482,0.241,0.47,0.33,0.401,0.59,1.04,1.04,1
NCI-H2405,0.888,0.742,0.928,0.66,0.432,0.505,0.319,0.529,0.401,0.393,0.308,0.333,0.57,0.701,0.562,0.626,0.824,0.698
NCI-H3122,1.04,1.06,1.13,0.892,0.586,0.611,0.584,0.576,0.41,0.366,0.339,0.341,0.0769,0.0986,0.088,0.833,0.682,0.7
PC-3 [JPC-3],0.807,0.854,0.72,0.779,0.857,0.798,0.716,0.68,0.472,0.489,0.489,0.464,0.716,0.793,0.642,0.985,1.01,1.09
PC-14,1.07,1.05,0.905,1.05,0.909,1.03,0.781,0.725,0.358,0.82,0.494,0.615,,0.172,0.14,0.915,0.961,0.916
